Measured values published in article PMC11066006, “Discovery of active mouse, plant and fungal cytochrome P450s in endogenous proteomes and upon expression in planta” (Scientific Reports, 2024).

Tests used:
Format in all cases: biochemical
[1] = biological target: T1, ZmCYP81A9-GFP (Zea mays, UniProt A0A804P7U7); assay: activity-based labeling, in-gel fluorescence; streptavidin pull-down LC-MS/MS; conditions: 10 μM probe, 1 mM NADPH, 1.5 h, leaf microsomes; covalent
T1 construct: C-terminal GFP fusion, codon-optimised, agroinfiltrated Nicotiana benthamiana leaf microsomes
T1 sequence (A0A804P7U7 with tags, fused parts or gaps): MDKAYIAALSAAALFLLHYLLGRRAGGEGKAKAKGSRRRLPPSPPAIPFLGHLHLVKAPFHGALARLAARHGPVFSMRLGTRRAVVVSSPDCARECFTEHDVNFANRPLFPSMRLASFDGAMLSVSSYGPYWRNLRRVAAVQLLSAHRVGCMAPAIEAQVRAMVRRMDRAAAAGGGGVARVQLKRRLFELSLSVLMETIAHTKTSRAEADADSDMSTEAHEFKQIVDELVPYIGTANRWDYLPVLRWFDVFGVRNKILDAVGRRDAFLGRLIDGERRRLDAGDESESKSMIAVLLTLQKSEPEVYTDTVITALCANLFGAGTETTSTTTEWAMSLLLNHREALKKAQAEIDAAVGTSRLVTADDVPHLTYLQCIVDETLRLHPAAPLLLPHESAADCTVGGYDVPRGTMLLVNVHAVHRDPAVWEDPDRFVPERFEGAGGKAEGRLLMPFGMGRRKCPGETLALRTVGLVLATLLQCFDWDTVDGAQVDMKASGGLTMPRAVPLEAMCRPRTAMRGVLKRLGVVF

[2] = biological target: T2, MmCyp1a2-GFP (Mus musculus, UniProt P00186); assay: activity-based labeling, click chemistry, in-gel fluorescence; conditions: 10 μM probe, 1 mM NADPH, 1.5 h, leaf microsomes; covalent
T2 construct: gene Cyp1a2; C-terminal GFP fusion, 82 kDa, codon-optimised, agroinfiltrated Nicotiana benthamiana leaf microsomes
T2 sequence (P00186 2-513): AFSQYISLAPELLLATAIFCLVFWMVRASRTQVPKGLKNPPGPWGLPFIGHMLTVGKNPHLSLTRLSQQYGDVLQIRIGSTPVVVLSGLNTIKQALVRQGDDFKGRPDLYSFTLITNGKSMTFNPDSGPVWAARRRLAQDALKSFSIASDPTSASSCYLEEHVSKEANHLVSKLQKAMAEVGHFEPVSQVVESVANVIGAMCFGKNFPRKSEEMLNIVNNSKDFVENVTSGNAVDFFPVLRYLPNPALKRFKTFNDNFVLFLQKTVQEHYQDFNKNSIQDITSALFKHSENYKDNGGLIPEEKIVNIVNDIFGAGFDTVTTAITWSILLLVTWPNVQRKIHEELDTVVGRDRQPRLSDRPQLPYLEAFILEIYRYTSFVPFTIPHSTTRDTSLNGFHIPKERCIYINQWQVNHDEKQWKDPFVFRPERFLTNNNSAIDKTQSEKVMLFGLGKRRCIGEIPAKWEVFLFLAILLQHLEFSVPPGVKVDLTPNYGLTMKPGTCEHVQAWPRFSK

[3] = biological target: T3, ZtCYP52R1 (Zymoseptoria tritici, UniProt F9XML6); assay: activity-based labeling, streptavidin pull-down LC-MS/MS; conditions: 30 μM probe, 1 mM NADPH, 1 h, native Z. tritici microsomes; covalent
T3 construct: gene CYP-29; native, microsomes of Z. tritici cell cultures, identified by MS; also expressed as C-terminal GFP fusion in N. benthamiana
T3 sequence (F9XML6 1-521): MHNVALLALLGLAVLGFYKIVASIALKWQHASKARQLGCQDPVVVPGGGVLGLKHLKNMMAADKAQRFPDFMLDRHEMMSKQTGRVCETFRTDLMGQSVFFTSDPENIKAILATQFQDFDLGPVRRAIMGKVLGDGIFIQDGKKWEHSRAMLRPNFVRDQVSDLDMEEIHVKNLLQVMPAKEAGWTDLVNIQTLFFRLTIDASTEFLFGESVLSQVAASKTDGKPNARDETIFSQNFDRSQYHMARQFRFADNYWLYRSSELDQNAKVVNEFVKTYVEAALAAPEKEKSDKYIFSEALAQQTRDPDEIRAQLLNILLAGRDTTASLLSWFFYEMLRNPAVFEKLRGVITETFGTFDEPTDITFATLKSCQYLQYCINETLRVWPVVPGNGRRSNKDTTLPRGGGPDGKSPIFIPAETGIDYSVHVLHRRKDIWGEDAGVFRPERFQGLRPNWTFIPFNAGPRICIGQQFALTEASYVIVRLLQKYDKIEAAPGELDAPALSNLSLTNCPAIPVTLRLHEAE

[4] = biological target: T4, ZtCYP539A6 (Zymoseptoria tritici, UniProt F9XDL6); assay: as above; conditions: 30 μM probe, 1 mM NADPH, 1 h, native Z. tritici microsomes; covalent
T4 construct: gene CYP-30; native, microsomes of Z. tritici cell cultures, identified by MS; also expressed as C-terminal GFP fusion in N. benthamiana
T4 sequence (F9XDL6 1-542): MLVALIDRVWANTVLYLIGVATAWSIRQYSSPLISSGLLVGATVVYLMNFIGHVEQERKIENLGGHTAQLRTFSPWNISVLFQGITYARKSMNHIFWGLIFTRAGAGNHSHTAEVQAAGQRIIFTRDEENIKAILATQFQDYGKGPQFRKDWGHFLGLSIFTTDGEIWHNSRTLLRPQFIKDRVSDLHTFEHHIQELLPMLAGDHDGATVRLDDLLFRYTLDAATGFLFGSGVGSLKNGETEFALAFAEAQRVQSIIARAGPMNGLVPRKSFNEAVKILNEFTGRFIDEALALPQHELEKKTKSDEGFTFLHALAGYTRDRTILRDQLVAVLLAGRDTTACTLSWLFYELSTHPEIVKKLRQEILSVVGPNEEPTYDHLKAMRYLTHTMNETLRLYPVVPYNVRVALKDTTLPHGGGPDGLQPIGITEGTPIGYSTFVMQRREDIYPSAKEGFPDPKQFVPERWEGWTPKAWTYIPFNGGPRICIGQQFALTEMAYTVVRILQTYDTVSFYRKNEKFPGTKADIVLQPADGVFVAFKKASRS

[5] = biological target: T1, ZmCYP81A9-GFP; assay: as above; conditions: 10 μM probe, 1 mM NADPH, 1.5 h, leaf microsomes; covalent
[6] = biological target: T5, ZmCYP81A9 (Zea mays, UniProt A0A804P7U7); assay: hydroxylation monitored by LC-MS; conditions: yeast microsomes, 200 μM bentazone, 1 mM NADPH, pH 7.5, 28 °C, 2 h
T5 construct: untagged as described; codon-optimised ORF in pYES3, microsomes of Saccharomyces cerevisiae WAT11
T5 sequence (A0A804P7U7 with tags, fused parts or gaps): T1 sequence (A0A804P7U7 with tags, fused parts or gaps)

[7] = biological target: T1, ZmCYP81A9-GFP; assay: activity-based labeling, click chemistry, in-gel fluorescence; conditions: 10 μM probe, 1 mM NADPH, 1.5 h, leaf microsomes; covalent

SMILES: C#CCCCCNC(=O)c1ccc(C#C)cc1 [DB096]
- activity-based labeling, in-gel fluorescence; streptavidin pull-down LC-MS/MS [1]: NADPH-dependent fluorescent signal for DB086 and DB096
- activity-based labeling, click chemistry, in-gel fluorescence [2]: tested these for labeling with DB086 and DB096
- activity-based labeling, streptavidin pull-down LC-MS/MS [3]: amongst the DB096-enriched proteins: ZtCYP52R1, ZtCYP539A6, ZtCYP5078B1 and ZtCYP5080H1
- activity-based labeling, streptavidin pull-down LC-MS/MS [4]: amongst the DB096-enriched proteins: ZtCYP52R1, ZtCYP539A6, ZtCYP5078B1 and ZtCYP5080H1

SMILES: C#CCCCCNC(=O)C1=Cc2ccc(C#C)cc2CC1 [DB088]
- activity-based labeling, streptavidin pull-down LC-MS/MS [5]: confirming that ZmCYP81A9-GFP is labeled by both DB088 and DB096

SMILES: CC(C)N1C(=O)c2ccccc2NS1(=O)=O [bentazone]
- hydroxylation monitored by LC-MS [6]: used to monitor the conversion of bentazone, leading to hydroxybentazone

SMILES: C#CCCCCNC(=O)c1cc2ccc(C#C)cc2oc1=O [DB086]
- activity-based labeling, click chemistry, in-gel fluorescence [7]: NADPH-dependent fluorescent signal for DB086 and DB096
- activity-based labeling, click chemistry, in-gel fluorescence [2]: tested these for labeling with DB086 and DB096
